Key:
Assay in all cases: relative viability (nuclei count vs DMSO), 5 days (fraction); higher = more cells survive
[1] = compound: CN(NC(=O)CC(=O)NN(C)C(=S)c1ccccc1)C(=S)c1ccccc1 [Elesclomol] + CC(=O)Nc1cccc(-n2c(=O)n(C3CC3)c(=O)c3c(Nc4ccc(I)cc4F)n(C)c(=O)c(C)c32)c1 [Trametinib] (partner 0.02 µM)
Procedure, shortened: (§1)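 A single step with final 0.05% Triton X-100, 1% formaldehyde and 1 ug/ml Hoechst fixed the cells and stained nuclei 5 days after treatment. Lung cancer cell lines in 1536-well plates had been treated by pin tool the day after seeding with one drug alone or a fixed anchor-drug dose plus five library-drug doses (not always all listed) in √10 steps, and nuclei were counted on 4× images. Relative viability is the ratio of nuclei in treated wells to nuclei in vehicle wells, taken as the median of duplicate plates.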

[2] = compound: CN(NC(=O)CC(=O)NN(C)C(=S)c1ccccc1)C(=S)c1ccccc1 [Elesclomol] + CC1(C)CCC(c2ccc(Cl)cc2)=C(CN2CCN(c3ccc(C(=O)NS(=O)(=O)c4ccc(N[C@H](CCN5CCOCC5)CSc5ccccc5)c(S(=O)(=O)C(F)(F)F)c4)cc3)CC2)C1 [Navitoclax] (partner 0.5 µM)
Procedure, shortened: as §1

[3] = compound: CN(NC(=O)CC(=O)NN(C)C(=S)c1ccccc1)C(=S)c1ccccc1 [Elesclomol] + COc1cccc2cc(-c3nc([C@H]4CC[C@H](C(=O)O)CC4)n4ncnc(N)c34)[nH]c12 [OSI-027] (partner 0.5 µM)
Procedure, shortened: as §1

[4] = compound: CN(NC(=O)CC(=O)NN(C)C(=S)c1ccccc1)C(=S)c1ccccc1 [Elesclomol] + Cc1cc(Nc2cc(N3CCN(C)CC3)nc(Sc3ccc(NC(=O)C4CC4)cc3)n2)n[nH]1 [Tozasertib] (partner 0.1 µM)
Procedure, shortened: as §1

[5] = compound: CN(NC(=O)CC(=O)NN(C)C(=S)c1ccccc1)C(=S)c1ccccc1 [Elesclomol] + O=C(c1cc(Cc2n[nH]c(=O)c3ccccc23)ccc1F)N1CCN(C(=O)C2CC2)CC1 [Olaparib] (partner 8 µM)
Procedure, shortened: as §1

Cell Line | relative viability ([1]; first compound 0.003162 µM) | relative viability ([1]; first compound 0.01 µM) | relative viability ([1]; first compound 0.03162 µM) | relative viability ([1]; first compound 0.1 µM) | relative viability ([2]; first compound 0.003162 µM) | relative viability ([2]; first compound 0.01 µM) | relative viability ([2]; first compound 0.03162 µM) | relative viability ([2]; first compound 0.1 µM) | relative viability ([3]; first compound 0.003162 µM) | relative viability ([3]; first compound 0.01 µM) | relative viability ([3]; first compound 0.03162 µM) | relative viability ([3]; first compound 0.1 µM) | relative viability ([4]; first compound 0.003162 µM) | relative viability ([4]; first compound 0.01 µM) | relative viability ([4]; first compound 0.03162 µM) | relative viability ([4]; first compound 0.1 µM) | relative viability ([5]; first compound 0.003162 µM) | relative viability ([5]; first compound 0.01 µM) | relative viability ([5]; first compound 0.03162 µM) | relative viability ([5]; first compound 0.1 µM)
NCI-H1734 | 0.674 | 0.511 | 0.151 | 0.0873 | 0.852 | 0.841 | 0.636 | 0.0859 | 0.573 | 0.491 | 0.178 | 0.124 | 0.276 | 0.24 | 0.126 | 0.0951 | 0.586 | 0.519 | 0.165 | 0.0747
NCI-H1755 | 0.772 | 0.77 | 0.774 | 0.56 | 0.968 | 0.847 | 0.82 | 0.158 | 0.756 | 0.457 | 0.66 | 0.419 | 0.625 | 0.47 | 0.421 | 0.288 | 0.87 | 0.813 | 0.938 | 0.692
NCI-H1793 | 0.339 | 0.414 | 0.318 | 0.111 | 0.349 | 0.349 | 0.382 | 0.135 | 0.276 | 0.197 | 0.262 | 0.228 | 0.356 | 0.286 | 0.348 | 0.132 | 0.818 | 0.692 | 0.386 | 0.0938
NCI-H1915 | 0.301 | 0.242 | 0.305 | 0.118 | 0.784 | – | 0.792 | 0.799 | 0.616 | – | 0.587 | 0.357 | 0.412 | – | 0.397 | 0.258 | 0.256 | 0.243 | 0.231 | 0.169
NCI-H1944 | 0.48 | 0.456 | 0.352 | 0.266 | 1.14 | 1.11 | 1.01 | 0.904 | 0.454 | 0.306 | 0.389 | 0.299 | 0.236 | 0.251 | 0.23 | 0.139 | 0.421 | 0.412 | 0.358 | 0.209
NCI-H1975 | 0.356 | 0.229 | 0.14 | 0.125 | 1 | 1.1 | 0.209 | 0.12 | 0.863 | 0.455 | 0.392 | 0.0658 | 0.733 | 0.517 | 0.118 | 0.0791 | 0.752 | 0.633 | 0.337 | 0.183
NCI-H1993 | 0.544 | 0.576 | 0.495 | 0.339 | 0.934 | 1.19 | 0.63 | 0.508 | 0.552 | 0.498 | 0.616 | 0.513 | 0.568 | 0.491 | 0.452 | 0.401 | 0.967 | 0.789 | 0.516 | 0.393
NCI-H2009 | 0.283 | 0.259 | 0.15 | 0.0957 | 1.17 | 0.567 | 0.277 | 0.11 | 0.448 | 0.131 | 0.126 | 0.0949 | 0.684 | 0.219 | 0.112 | 0.0954 | 0.643 | 0.515 | 0.128 | 0.109
NCI-H2023 | 0.469 | 0.149 | 0.0579 | 0.045 | 0.99 | 0.455 | 0.111 | 0.102 | 0.351 | 0.128 | 0.0471 | 0.0389 | 0.282 | 0.192 | 0.0576 | 0.0475 | 0.465 | 0.272 | 0.143 | 0.102
NCI-H2085 | 0.608 | 0.434 | 0.207 | 0.174 | 1.22 | 0.725 | 0.657 | 0.312 | 0.919 | 0.727 | 0.476 | 0.268 | 0.76 | 0.703 | 0.529 | 0.457 | 0.874 | 0.669 | 0.497 | 0.282
NCI-H2087 | 0.204 | 0.149 | 0.153 | 0.0863 | 0.924 | 0.728 | 0.499 | 0.469 | 0.422 | 0.283 | 0.357 | 0.225 | 0.18 | 0.187 | 0.158 | 0.0781 | 0.55 | 0.264 | 0.334 | 0.082
NCI-H2126 | 0.554 | 0.555 | 0.497 | 0.557 | 0.89 | 0.826 | 0.908 | 0.827 | 0.826 | 0.637 | 0.455 | 0.246 | 0.792 | 0.751 | 0.359 | 0.337 | 0.913 | 0.886 | 0.887 | 0.777
NCI-H2170 | 0.949 | 0.95 | 0.898 | 0.607 | 0.628 | 0.475 | 0.493 | 0.245 | 0.793 | 0.577 | 0.739 | 0.583 | 0.715 | 0.641 | 0.703 | 0.491 | 0.55 | 0.558 | 0.638 | 0.344
NCI-H2228 | 0.573 | 0.228 | 0.177 | 0.0514 | 0.739 | 0.586 | 0.325 | 0.0519 | 0.568 | 0.27 | 0.188 | 0.0467 | 0.242 | 0.257 | 0.166 | 0.051 | 0.537 | 0.365 | 0.195 | 0.0479
NCI-H2347 | 0.341 | 0.264 | 0.33 | 0.256 | 0.809 | 0.668 | 0.905 | 0.299 | 0.389 | 0.389 | 0.173 | 0.211 | 0.683 | 0.424 | 0.264 | 0.248 | 0.591 | 0.463 | 0.525 | 0.339
NCI-H2405 | 0.687 | 0.468 | 0.295 | 0.272 | 0.619 | 0.178 | 0.137 | 0.132 | 0.651 | 0.473 | 0.339 | 0.272 | 0.691 | 0.47 | 0.292 | 0.315 | 0.737 | 0.693 | 0.386 | 0.353
